Assay results reported in the CheMixHub ionic liquid set.

Experiment: xn = mol fraction of the nth substance listed
Conditions: 101.3 kPa

CC[n+]1ccn(C)c1C.F[B-](F)(F)F + CC(C)=O
viscosity [mPa·s]
Conditions	x1 = 0.02954	x1 = 0.06403	x1 = 0.1051	x1 = 0.1544	x1 = 0.215	x1 = 0.2913	x1 = 0.3887	x1 = 0.5201
293.15 K	0.42	0.615	0.797	1.19	1.82	3.37	7.01	15.8
298.15 K	0.402	0.59	0.767	1.119	1.7	3.09	6.27	13.2
303.15 K	0.384	0.563	0.726	1.048	1.59	2.81	5.66	11.59
308.15 K	0.368	0.54	0.687	0.986	1.48	2.57	5.13	10.2
313.15 K	0.354	0.516	0.652	0.929	1.38	2.36	4.67	9.03
318.15 K	0.34	0.496	0.62	0.874	1.29	2.16	4.26	8.14
323.15 K	0.327	0.478	0.588	0.825	1.22	1.96	3.91	7.34
